In ChEMBL document CHEMBL2010646, “Small molecule inhibitors of the HPV16-E6 interaction with caspase 8” (Bioorg Med Chem Lett, 2012) one finds inhibition and IC50 data, which are given here for 19 compounds.

Active and inactive are the calls of the source. The rule behind the calls is not given here.

Assay [1] concerns the target Protein E6 (Human papillomavirus 16) (UniProt P03126). Kind of assay: Inhibition of GST-tagged Human papillomavirus 16 protein E6 interaction with His-tagged human caspase 8 expressed in Escherichia coli at 20 nM to 20 uM after 1 hr incubation followed by overnight incubation by Alpha screening technique.
The next assay addresses Caspase-8 (Homo sapiens) (UniProt Q14790). Briefly: Inhibition of GST-tagged human caspase 8 interaction with His-tagged human caspase 8 expressed in Escherichia coli at 0.1 to 10 uM after 1 hr followed by overnight incubation by bead-based binding assay.
The target of a further assay is Protein E6 (Human papillomavirus 16, UniProt P03126). Briefly: (§1) Inhibition of GST-tagged Human papillomavirus 16 protein E6 interaction with His-tagged human caspase 8 expressed in Escherichia coli after 1 hr incubation followed by overnight incubation by Alpha screening technique.
Chain of Protein E6 (P03126 whole entry): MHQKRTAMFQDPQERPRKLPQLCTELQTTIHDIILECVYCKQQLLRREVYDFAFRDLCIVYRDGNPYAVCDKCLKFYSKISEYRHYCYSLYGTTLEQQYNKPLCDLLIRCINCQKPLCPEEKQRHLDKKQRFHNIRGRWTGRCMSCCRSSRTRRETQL
Assay [2] deals with Protein E6 (Human papillomavirus 16) (UniProt P03126). Kind of assay: Inhibition of GST-tagged Human papillomavirus 16 protein E6 interaction with His-tagged human FADD expressed in Escherichia coli after 1 hr incubation followed by overnight incubation by Alpha screening technique.
Chain of Protein E6 (Human papillomavirus 16) (P03126 whole entry): as above
The target is the same in assay [3]. Described as §1.

Chain of Caspase-8 (Homo sapiens) (Q14790 217-374 limits assumed): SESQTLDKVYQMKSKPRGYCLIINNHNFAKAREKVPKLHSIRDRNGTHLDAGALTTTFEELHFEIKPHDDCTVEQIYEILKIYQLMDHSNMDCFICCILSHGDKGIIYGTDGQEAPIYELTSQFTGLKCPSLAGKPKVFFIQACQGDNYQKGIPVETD
Chain of Caspase-8 (Homo sapiens) (Q14790 385-479 limits assumed): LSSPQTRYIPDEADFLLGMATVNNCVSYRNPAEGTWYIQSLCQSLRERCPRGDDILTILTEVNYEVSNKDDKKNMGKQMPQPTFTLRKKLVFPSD

In the case of `O=c1c(O)c(-c2ccccc2O)oc2cc(O)cc(O)c12`, the inhibition entry in assay [1] was “inactive”.
Consider `O=c1c(O)c(-c2ccc(O)cc2O)oc2cc(O)cc(O)c12` [MORIN], for which the inhibition entry on Caspase-8 (Homo sapiens) is “inactive”. Moreover, the midpoint of inhibition against Protein E6, the IC50, lay at 4 µM.
Turning to `O=c1c(O)c(-c2ccccc2)oc2ccc(O)cc12`, the inhibition entry (at Caspase-8 (Homo sapiens); in assay [1]) was “inactive” throughout.
As to `O=c1c(O)c(-c2ccccc2)oc2cc(O)ccc12`, the inhibition entry in assay [1] was “inactive”.
Still for that read-out and setting: then `O=c1c(O)c(-c2ccccc2)oc2cc(O)cc(O)c12`, with “Active”.
On the same count and under the same terms, as for `COc1cc(-c2oc3cc(O)ccc3c(=O)c2O)ccc1O`, the entry is “inactive”; as for `O=c1c(O)c(-c2ccc(O)c(O)c2)oc2cc(O)ccc12`, “inactive”; as for `O=c1cc(-c2ccccc2)oc2ccccc12`, “inactive”.
On the same count and under the same terms, then `COc1cc(-c2oc3cc(O)cc(O)c3c(=O)c2O)ccc1O`, with “inactive”; and `COc1cc(O)c2c(=O)c(O)c(-c3ccc(O)c(O)c3)oc2c1`, with “inactive”.
For `O=c1c(O)c(-c2cc(O)c(O)c(O)c2)oc2cc(O)cc(O)c12` [MYRICETIN], the inhibition result at Caspase-8 (Homo sapiens) is “inactive”. For the same compound, the IC50 (in general, the point on the concentration scale where inhibition reaches its midpoint) on Protein E6 stood at 0.85 µM.
Consider `COc1ccc2c(=O)c(O)c(-c3ccccc3)oc2c1`, for which, in assay [1], the inhibition result is “inactive”.
With `O=c1c(O)c(-c2ccc(O)c(O)c2)oc2cc(O)cc(O)c12` [QUERCETIN], at Protein E6, the IC50 was greater than 20 µM.
With `CC(C)c1ccc(-c2oc3c(Cl)cc(CC(=O)O)cc3c(=O)c2O)cc1`, the inhibition result in assay [1] is “inactive”.
On the same count and under the same terms, as for `O=c1cc(-c2ccc(O)cc2)oc2cc(O)cc(O)c12`, the entry is “inactive”; as for `O=C(O)Cc1cc(Cl)c2oc(-c3ccccc3)c(O)c(=O)c2c1`, “inactive”.
In the case of `O=c1c(O)c(-c2ccccc2)oc2ccccc12`, the inhibition entry in assay [1] is “inactive”.
For the compound `O=c1c(O)c(-c2ccc(O)cc2)oc2cc(O)cc(O)c12` [KAEMPFEROL], the inhibition entry in assay [2] and in assay [3] was “Dose-dependent effect” in each case. In addition, at Protein E6, the IC50 is greater than 20 µM.
Consider `O=C(O)Cc1cc(Cl)c2oc(-c3ccc(Cl)cc3)c(O)c(=O)c2c1`, for which the inhibition result in assay [1] is “inactive”.
